From US12138256B2, “Treatment of cardiopulmonary disorders” (Bayer Aktiengesellschaft, priority 2021, dated 2024)
Where two headings read alike, the source gives them in different places.

Tests used:
[1] = Thermal stability of the solid (90° C., 7 days, HPLC peak areas); format: physicochemical
Experimental: 0.3 mg of the test compound, e.g. comparative example 11 were solved in 0.1 ml dimethylsulfoxide and 0.4 ml acetonitrile. Then 1.0 ml water was added. For complete dissolution the HPLC vial was shaken and sonicated. This solution was immediately analyzed by HPLC (reference at t0). 0.3 mg of the test compound was weighed into another HPLC vial. The vial was capped and stored for 7 days in a heating block at 90° C.
After this time the vial was decapped and 0.1 ml dimethylsulfoxide and 0.4 ml acetonitrile were added to the stressed compound. Then 1.0 ml water was added. For complete dissolution the HPLC vial was shaken and sonicated. The sample was analyzed by HPLC (sample after 1 week). The peak areas in percentage are used for quantification.

[2] = system: allergen-induced late airway hyperresponsiveness and inflammation in sensitized mice; assay: Chronic asthma model: ovalbumin sensitized BALB/c mice, airway hyperresponsiveness and BAL (C-3.3); format: in vivo, mouse; details: for inhibition at 0.1 mg/kg: Mus musculus, dexamethasone 18 h and 1 h before each Ova challenge, comparative example 11 high dose of 100 μg/kg 2 h before
Experimental: The study was conducted to investigate whether inhalative treatment with comparative example 11 has a protective effect on the experimentally allergen-induced late airway hyperresponsiveness and inflammation in sensitized mice. Female BALB/c mice were sensitized and boosted with Ovalbumin (Ova) and aluminium hydroxide adjuvant (day 0. 14 and 21) with the exception of the negative control group receiving NaCl. On day 28 and 29. the animals were challenged with Ova aerosol. On day 30, a hyperresponsiveness test followed by bronchoalveolar lavage (BAL) was performed in all animals of all groups. The treatment groups D (10 μg) and E (100 μg) were treated with comparative example 11 inhalationally 2 h before each Ova challenge. Group A and B, the positive and negative control groups, were treated correspondingly with the vehicle. The Ova-sensitized positive control group A should show the full allergic reaction and, in contrast, the sham-sensitized negative control group B should show no allergic response. As a reference group, the animals of group C were treated inhalative with the corticosteroid dexamethasone but—due to its different mechanism of action—18 h and 1 h before each Ova challenge (on day 27, 28 and 29). On day 30, 24 h after Ova challenge in the late allergic phase, lung function—especially RL—was measured in the orotracheally intubated mice and a test on airway hyperresponsiveness was performed (inhalational methacholine provocation in doubling dose steps). […] These inhibitory effects show the successful therapeutic intervention.

SMILES | thermal stability [1] | also measured
O=C(O)c1ccc(CCN(CCc2ccccc2OCc2ccc(-c3nc4cc(C(F)(F)F)ccc4o3)cc2)C2CCCc3nc(C(=O)O)ccc32)cc1 (single isomer, unassigned) [comparative example 6, 5-([2-(4-carboxyphenyl)ethyl]{2-[2-({4-[5-(trifluoromethyl)-1,3-benzoxazol-2-yl]benzyl}oxy)phenyl]-ethyl}amino)-5,6,7,8-tetrahydroquinoline-2-carboxylic acid] | limited thermal stability | 
O=C(O)CCCCN(CCc1ccccc1OCc1ccc(-c2nc3cc(C(F)(F)F)ccc3o2)cc1)C1CCCc2nc(C(=O)O)ccc21 (single isomer, unassigned) [comparative example 7, 5-[(4-carboxybutyl)(2-[2-({4-[5-(trifluoromethyl)-1,3-benzoxazol-2-yl]benzyl}oxy)phenyl]ethyl)amino]-5,6,7,8-tetrahydroquinoline-2-carboxylic acid] | limited thermal stability | 
O=C(O)CCCCN(CCc1ccccc1OCc1ccc(-c2nc3cc(OC(F)(F)F)ccc3o2)cc1)C1CCCc2nc(C(=O)O)ccc21 (single isomer, unassigned) [comparative example 8, 5-[(4-carboxybutyl){2-[2-({4-[5-(trifluoromethoxy)-1,3-benzoxazol-2-yl]benzyl}oxy)phenyl]ethyl}-amino]-5,6,7,8-tetrahydroquinoline-2-carboxylic acid] | limited thermal stability | 
O=C(O)c1ccc(CCN(CCc2ccccc2OCc2ccc(-c3nc4cc(OC(F)(F)F)ccc4o3)cc2)C2CCCc3nc(C(=O)O)ccc32)cc1 (single isomer, unassigned) [comparative example 9, 5-([2-(4-carboxyphenyl)ethyl]{2-[2-({4-[5-(trifluoromethoxy)-1,3-benzoxazol-2-yl]benzyl}oxy)-phenyl]ethyl}amino)-5,6,7,8-tetrahydroquinoline-2-carboxylic acid] | limited thermal stability | 
N#Cc1ccc2oc(-c3ccc(COc4ccccc4CCN(CCCCC(=O)O)C4CCCc5nc(C(=O)O)ccc54)cc3)nc2c1 (single isomer, unassigned) [comparative example 10, 5-{(4-carboxybutyl)[2-(2-{[4-(5-cyano-1,3-benzoxazol-2-yl)benzyl]oxy}phenyl)ethyl]amino}-5,6,7,8-tetrahydroquinoline-2-carboxylic acid] | limited thermal stability | 
C[C@@H]1C[C@H]2[C@@H]3CCC4=CC(=O)C=C[C@]4(C)[C@@]3(F)[C@@H](O)C[C@]2(C)[C@@]1(O)C(=O)CO [dexamethasone, reference compound] |  | inhibition at 0.1 mg/kg ([2]; read-out: inhibition of the airway hyperresponsiveness (ED100)): 89%; inhibition at 0.1 mg/kg ([2]; read-out: inhibition of the airway hyperresponsiveness (ED150)): 70%; inhibition of the eosinophilic influx ([2]; dexamethasone inhalative): 100%
